# Test system: SARS-CoV-2
# Test: microbe, parasite or virus in culture
# Details: Severe acute respiratory syndrome coronavirus 2, Vero C1008, 48 h
row,Compound,IC50 [µM]
1,N[C@@H](Cc1ccc(N(CCCl)CCCl)cc1)C(=O)O,> 20
2,CC(C)c1cccc(C(C)C)c1O [PROPOFOL],> 20
3,CC(=O)[C@@]1(O)CC[C@H]2[C@@H]3CCC4=CC(=O)C=C[C@]4(C)[C@H]3[C@@H](O)C[C@@]21C [DEPRODONE],> 20
4,O=C(O)/C=C/C=C/c1ccc2c(c1)OCO2 [PIPERIC ACID],> 20
5,Fc1ccc(CN2CCC(Nc3ccc(C(F)(F)F)nn3)CC2)cc1F [JNJ-37822681],> 20
6,CCCCCC1C(=O)N2C=C(c3ccccc3)c3ccccc3N2C1=O (stereo not given) [CINTAZONE],> 20
7,Nc1ccncc1 [DALFAMPRIDINE],> 20
8,O=C(O)Cc1ccc(-c2ccccc2)cc1 [FELBINAC],> 20
9,Cc1cn([C@H]2C[C@H](F)[C@@H](CO)O2)c(=O)[nH]c1=O [ALOVUDINE],> 100
10,CCC(C)C(NC(=O)C(CCC(N)=O)NC(=O)C1CCCN1C(=O)C(CCCNC(=N)N)NC(=O)C1CCCN1C(=O)C(Cc1c[nH]c2ccccc12)NC(=O)C1CCC(=O)N1)C(=O)N1CCCC1C(=O)N1CCCC1C(=O)O (stereo not given),> 20
11,Cc1nc(NC(=O)N2CCC[C@H]2C(N)=O)sc1-c1ccnc(C(C)(C)C(F)(F)F)c1 [ALPELISIB],> 20
12,NC(=O)c1ccc[n+]([C@@H]2O[C@H](CO)[C@@H](O)[C@H]2O)c1 [NICOTINAMIDE RIBOSIDE],> 20
13,NC(=O)CN1CCCC1=O,> 20
14,CCOC(=O)n1ccn(C)c1=S [CARBIMAZOLE],> 20
15,enfuvirtide,> 20
16,C[C@H](CCC(=O)NCC(=O)O)[C@H]1CC[C@H]2[C@@H]3[C@H](O)C[C@@H]4C[C@H](O)CC[C@]4(C)[C@H]3C[C@H](O)[C@]12C [GLYCOCHOLIC ACID],> 20
17,CC1C2Cc3ccc(O)cc3C1(C)CCN2CC1CC1 (stereo not given),> 20
18,CC1(C)S[C@@H]2[C@H](NC(=O)[C@H](N)c3ccccc3)C(=O)N2[C@H]1C(=O)OC1OC(=O)c2ccccc21 (stereo not given in full) [TALAMPICILLIN],> 20
19,CCCC(=O)Nc1ncnc2c1ncn2[C@@H]1O[C@@H]2COP(=O)(O)O[C@H]2[C@H]1OC(=O)CCC [BUCLADESINE],> 20
20,COc1cc2nc(N3CCN(C(=O)c4ccco4)CC3)nc(N)c2cc1OC [PRAZOSIN],> 20
21,O=c1[nH]c(=O)c2ccccc2o1,> 20
22,FC(F)(F)c1ccc(CNc2ccc(Cc3c[nH]c4ncc(Cl)cc34)cn2)cn1 [PEXIDARTINIB],> 20
23,COc1cc(NCc2ccc3nc(N)nc(N)c3c2C)cc(OC)c1OC [TRIMETREXATE],> 20

row,Compound,IC50 [µM]
1,COc1c(N2CCNC(C)C2)c(F)cc2c(=O)c(C(=O)O)cn(C3CC3)c12 (stereo not given) [GATIFLOXACIN],> 20
2,CC[C@@H](Nc1c(Nc2cccc(C(=O)N(C)C)c2O)c(=O)c1=O)c1ccc(C)o1 [NAVARIXIN ANHYDROUS],> 20
3,CC(=O)N(O)CCCCCNC(=O)CCC(=O)N(O)CCCCCNC(=O)CCC(=O)N(O)CCCCCN [DEFEROXAMINE],> 20
4,CC(C=NNC(=N)N)=NNC(=N)N,> 20
5,O=C1[C@H]2CCCC[C@H]2C(=O)N1CCCCN1CCN(c2nsc3ccccc23)CC1 [PEROSPIRONE],> 20
6,CN(C)CCN(Cc1ccccc1)c1ccccn1 [TRIPELENNAMINE],> 20
7,COc1cc([C@@H]2Oc3cc([C@H]4Oc5cc(O)cc(O)c5C(=O)[C@@H]4O)ccc3O[C@H]2CO)ccc1O [SILYBIN B],> 20
8,CCn1cc(C(=O)O)c(=O)c2cc(F)c(N3CCNCC3)nc21 [ENOXACIN],> 20
9,CC(=O)CC(c1ccccc1)c1c(O)c2ccccc2oc1=O (stereo not given) [WARFARIN],> 20
10,Nc1nc(O)c2ncn([C@@H]3O[C@H](CO)[C@@H](O)[C@H]3F)c2n1,> 20
11,Cc1c(C(C)C)c(=O)n(-c2ccccc2)n1C [PROPYPHENAZONE],> 20
12,S=C(Nc1ccccc1)Nc1nccs1,> 20
13,CC(=O)OC1CCC2(C)C3CC(=O)C4(C)C(C(C)=O)=CCC4C3CC[C@H]2C1 (stereo not given in full),> 20
14,Nc1nc(=O)c2sc(=O)n([C@@H]3O[C@H](CO)[C@@H](O)[C@H]3O)c2[nH]1 [ISATORIBINE],> 25.1
15,Cc1cc(SCc2sc(-c3ccc(C(F)(F)F)cc3)nc2C)ccc1OCC(=O)O [GW501516],> 20
16,N/C=C1\Cc2ccccc2C1=O,> 20
17,CC=C(C)C(=O)O[C@@H]1c2c(ccc3ccc(=O)oc23)OC(C)(C)[C@@H]1OC(C)=O,> 20
18,CN1CC(=O)NC1=N [CREATININE],> 20
19,c1ccc(C2CN=C3NCCN32)cc1 (stereo not given) [IMAFEN],> 20
20,CNC(=O)c1ccc(-c2cnc3ncc(Cc4ccc5ncccc5c4)n3n2)cc1F [CAPMATINIB],> 20
21,CC(=O)OCC(=O)C1(O)CCC2C3CCC4=CC(=O)C=CC4(C)C3C(O)CC21C (stereo not given),> 20
22,COCCCOc1cc(C[C@@H](C[C@H](N)[C@@H](O)C[C@H](C(=O)NCC(C)(C)C(N)=O)C(C)C)C(C)C)ccc1OC,> 20

# Same assay, conditions: Severe acute respiratory syndrome coronavirus 2, Vero C1008, 48 h, read-out: pIC50 (converted)
row,Compound,IC50 [µM]
1,N[C@@H](Cc1ccc(N(CCCl)CCCl)cc1)C(=O)O,> 20
2,CC(C)c1cccc(C(C)C)c1O [PROPOFOL],> 20
3,CC(=O)[C@@]1(O)CC[C@H]2[C@@H]3CCC4=CC(=O)C=C[C@]4(C)[C@H]3[C@@H](O)C[C@@]21C [DEPRODONE],> 20
4,O=C(O)/C=C/C=C/c1ccc2c(c1)OCO2 [PIPERIC ACID],> 20
5,Fc1ccc(CN2CCC(Nc3ccc(C(F)(F)F)nn3)CC2)cc1F [JNJ-37822681],> 20
6,CCCCCC1C(=O)N2C=C(c3ccccc3)c3ccccc3N2C1=O (stereo not given) [CINTAZONE],> 20
7,Nc1ccncc1 [DALFAMPRIDINE],> 20
8,O=C(O)Cc1ccc(-c2ccccc2)cc1 [FELBINAC],> 20
9,Cc1cn([C@H]2C[C@H](F)[C@@H](CO)O2)c(=O)[nH]c1=O [ALOVUDINE],> 100
10,CCC(C)C(NC(=O)C(CCC(N)=O)NC(=O)C1CCCN1C(=O)C(CCCNC(=N)N)NC(=O)C1CCCN1C(=O)C(Cc1c[nH]c2ccccc12)NC(=O)C1CCC(=O)N1)C(=O)N1CCCC1C(=O)N1CCCC1C(=O)O (stereo not given),> 20
11,Cc1nc(NC(=O)N2CCC[C@H]2C(N)=O)sc1-c1ccnc(C(C)(C)C(F)(F)F)c1 [ALPELISIB],> 20
12,NC(=O)c1ccc[n+]([C@@H]2O[C@H](CO)[C@@H](O)[C@H]2O)c1 [NICOTINAMIDE RIBOSIDE],> 20
13,NC(=O)CN1CCCC1=O,> 20
14,CCOC(=O)n1ccn(C)c1=S [CARBIMAZOLE],> 20
15,enfuvirtide,> 20
16,C[C@H](CCC(=O)NCC(=O)O)[C@H]1CC[C@H]2[C@@H]3[C@H](O)C[C@@H]4C[C@H](O)CC[C@]4(C)[C@H]3C[C@H](O)[C@]12C [GLYCOCHOLIC ACID],> 20
17,CC1C2Cc3ccc(O)cc3C1(C)CCN2CC1CC1 (stereo not given),> 20
18,CC1(C)S[C@@H]2[C@H](NC(=O)[C@H](N)c3ccccc3)C(=O)N2[C@H]1C(=O)OC1OC(=O)c2ccccc21 (stereo not given in full) [TALAMPICILLIN],> 20
19,CCCC(=O)Nc1ncnc2c1ncn2[C@@H]1O[C@@H]2COP(=O)(O)O[C@H]2[C@H]1OC(=O)CCC [BUCLADESINE],> 20
20,COc1cc2nc(N3CCN(C(=O)c4ccco4)CC3)nc(N)c2cc1OC [PRAZOSIN],> 20
21,O=c1[nH]c(=O)c2ccccc2o1,> 20
22,FC(F)(F)c1ccc(CNc2ccc(Cc3c[nH]c4ncc(Cl)cc34)cn2)cn1 [PEXIDARTINIB],> 20
23,COc1cc(NCc2ccc3nc(N)nc(N)c3c2C)cc(OC)c1OC [TRIMETREXATE],> 20

row,Compound,IC50 [µM]
1,COc1c(N2CCNC(C)C2)c(F)cc2c(=O)c(C(=O)O)cn(C3CC3)c12 (stereo not given) [GATIFLOXACIN],> 20
2,CC[C@@H](Nc1c(Nc2cccc(C(=O)N(C)C)c2O)c(=O)c1=O)c1ccc(C)o1 [NAVARIXIN ANHYDROUS],> 20
3,CC(=O)N(O)CCCCCNC(=O)CCC(=O)N(O)CCCCCNC(=O)CCC(=O)N(O)CCCCCN [DEFEROXAMINE],> 20
4,CC(C=NNC(=N)N)=NNC(=N)N,> 20
5,O=C1[C@H]2CCCC[C@H]2C(=O)N1CCCCN1CCN(c2nsc3ccccc23)CC1 [PEROSPIRONE],> 20
6,CN(C)CCN(Cc1ccccc1)c1ccccn1 [TRIPELENNAMINE],> 20
7,COc1cc([C@@H]2Oc3cc([C@H]4Oc5cc(O)cc(O)c5C(=O)[C@@H]4O)ccc3O[C@H]2CO)ccc1O [SILYBIN B],> 20
8,CCn1cc(C(=O)O)c(=O)c2cc(F)c(N3CCNCC3)nc21 [ENOXACIN],> 20
9,CC(=O)CC(c1ccccc1)c1c(O)c2ccccc2oc1=O (stereo not given) [WARFARIN],> 20
10,Nc1nc(O)c2ncn([C@@H]3O[C@H](CO)[C@@H](O)[C@H]3F)c2n1,> 20
11,Cc1c(C(C)C)c(=O)n(-c2ccccc2)n1C [PROPYPHENAZONE],> 20
12,S=C(Nc1ccccc1)Nc1nccs1,> 20
13,CC(=O)OC1CCC2(C)C3CC(=O)C4(C)C(C(C)=O)=CCC4C3CC[C@H]2C1 (stereo not given in full),> 20
14,Nc1nc(=O)c2sc(=O)n([C@@H]3O[C@H](CO)[C@@H](O)[C@H]3O)c2[nH]1 [ISATORIBINE],> 25.1
15,Cc1cc(SCc2sc(-c3ccc(C(F)(F)F)cc3)nc2C)ccc1OCC(=O)O [GW501516],> 20
16,N/C=C1\Cc2ccccc2C1=O,> 20
17,CC=C(C)C(=O)O[C@@H]1c2c(ccc3ccc(=O)oc23)OC(C)(C)[C@@H]1OC(C)=O,> 20
18,CN1CC(=O)NC1=N [CREATININE],> 20
19,c1ccc(C2CN=C3NCCN32)cc1 (stereo not given) [IMAFEN],> 20
20,CNC(=O)c1ccc(-c2cnc3ncc(Cc4ccc5ncccc5c4)n3n2)cc1F [CAPMATINIB],> 20
21,CC(=O)OCC(=O)C1(O)CCC2C3CCC4=CC(=O)C=CC4(C)C3C(O)CC21C (stereo not given),> 20
22,COCCCOc1cc(C[C@@H](C[C@H](N)[C@@H](O)C[C@H](C(=O)NCC(C)(C)C(N)=O)C(C)C)C(C)C)ccc1OC,> 20

# Reference: ChEMBL document CHEMBL4651402, “Screening of ~5500 FDA-approved drugs and clinical candidates for anti-SARS-CoV-2 activity” (2021)
